The values below are quoted from earlier work in US9304123B2, “Biomarkers used to detect and monitor neurological autoimmune diseases” (NUtech Ventures, priority 2012, dated 2016).

For this data set, the system named is EAE. As to conditions: animal models.

SMILES strings stand for the structures.

For the compound `CN(C)C(=N)N=C(N)N` [Metformin], the “effect on EAE progression” value is given as “attenuate EAE progression”.
